Test results: paper PMC10671498, “Antiproliferative and Cytotoxic Properties of Propynoyl Betulin Derivatives against Human Ovarian Cancer Cells: In Vitro Studies” (International Journal of Molecular Sciences, 2023)

Experiments:
[1] = tested on: C32 cell line; parameters: method as in PMID 33572631; settings: cited from earlier work
[2] = tested on: SK-OV-3 cells; assay: Plasma membrane permeability (DNA-histone complexes in culture medium); format: cell-based, human; settings: SK-OV-3, 24 h, with 5 µM cyclosporin A added 30 min before
Method: Fragmentation of genomic DNA was determined by means of the Cell Death Detection ELISAPLUS kit (Roche, Basel, Switzerland). This method rests on the immunoenzymatic detection of DNA–histone complexes in the cytoplasmic cell fraction or cell culture supernatants. Cells were plated and cultured in 96-well plates (Greiner Bio-One) at the initial density of 5 × 10^3 cells per well in 100 µL of culture medium. Cells were allowed to attach and grow for 1 day prior to the addition of test reagents. Then, the media were replaced with the working solutions (3 µM, 10 µM, 30 µM), and cells were exposed to compounds 2–6 for 24 h. In some cases, 5 µM cyclosporin A (CsA, an inhibitor of the mitochondrial permeability transition) was added to the cells 30 min before treatment with the betulin derivative. Subsequently, cells were incubated concomitantly with both compounds. […] In one experiment, the presence of mono- and oligonucleosomes was determined in 20 µL samples of centrifuged culture supernatants (media) to detect the permeability of plasma membrane (considered as an indicator of cell necrosis). […] Absorbance was measured at 405 nm and 490 nm (reference wavelength), and the enrichment factor of the cytoplasmic (or supernatant) fraction in mono- and oligonucleosomes was calculated according to the formula: EF = absorbance of sample cells/absorbance of control cells.

[3] = tested on: SK-OV-3 cells; assay: Cell morphology, acridine orange staining; format: cell-based, human; settings: SK-OV-3, 24 h, 30 µM
Method: Acridine orange staining was preceded by preparation of a cell culture at a density 1 × 10^5 per well in a 24-well glass bottom plate (NEST Biotechnology, Wuxi, China). Cells were cultured for 24 h in a standard medium (1 mL), after which the medium was replaced with a new medium containing 10 µM and 30 µM of the test compounds or with 0.2% DMSO (control). Cells were incubated in the presence of test substances for 24 h in a CO2 incubator. To each of the test wells, acridine orange dissolved in PBS (the final concentration was 1 µg/mL) was added and incubated for 5 min in a CO2 incubator. After incubation, the cells were observed under a Nikon Eclipse TS-100F microscope (Nikon Instruments Europe, Amstelveen, The Netherlands). The photographs were taken with a Nikon DS-Fi1 digital camera, supported by the NIS-Elements application.

| SMILES | IC50 [1] | effect of CsA on compound-induced cell death, plasma membrane permeability [2] | cell morphology (acridine orange) [3] |
| --- | --- | --- | --- |
| C#CC(=O)OC[C@]12CC[C@@H](/C(C)=C/P(=O)(OCC)OCC)C1C1CCC3[C@@]4(C)CC[C@H](O)C(C)(C)C4CC[C@@]3(C)[C@]1(C)CC2 (stereo partly drawn) [Compound 6, E-29-diethoxyphosphoryl-28-O-propynoylbetulin] | 600 nM | almost completely prevented | – |
| C=C(C)[C@@H]1CC[C@]2(CO)CC[C@]3(C)[C@H](CC[C@@H]4[C@@]5(C)CC[C@H](O)C(C)(C)[C@@H]5CC[C@]43C)[C@@H]12 [Compound 1, lup-20(29)-ene-3β,28-diol, reference compound] | – | – | typical apoptotic morphology |
